Results on seven molecules are retold here after patent publication US8492555B2, “Salts of isobutyric acid (1 R*, 2R*, 4R*)-2-(2-{[3-(4,7-dimethoxy-1 H-benzoimidazol-2-yl)-methyl-amino}-ethyl)-5-phenyl-bicyclo[2.2.2]oct-5-en-2-yl ester” (Actelion Pharmaceuticals Ltd., priority 2008, dated 2013).

Molecules are shown by their SMILES.

One series relates to isolated mouse hearts. Put plainly: Effect on isolated hearts according to the Langendorff method. Particulars: read-out: EC50 Langendorff experiment. The procedure: Effect on Isolated Hearts According to the Langendorff Method (Lgdff)
The Reference Examples 1A, 2A, and 3A were tested for their potential to reduce blood pressure and their effect on the contractility of the heart muscle. EC50 values on isolated mouse hearts were determined according to Literature (Doring H J., The isolated perfused heart according to Langendorff technique—function—application, Physiol. Bohemoslov. 1990, 39(6), 481-504; Kligfield P, Homer H, Brachfeld N., A model of graded ischemia in the isolated perfused rat heart, J. Appl. Physiol. 1976 June, 40(6), 1004-8).

A further series concerns the target T1, human Cav1.2 channel (Homo sapiens, UniProt Q13936).
T1 construct: expressed in transfected cells; host or cells: HEK293
Put plainly: In vitro assay L channel (FLIPR, KCl-induced calcium fluorescence). Format: cell-based. Particulars: HEK293 cells expressing human Cav1.2 with β-2a and α2δ-1; 20 mM KCl; read-out: L channel antagonistic activity IC50. The procedure: The L channel antagonistic activity (IC50 values) of Reference Examples 1A, 2A, and 3A is determined in accordance with the following experimental method.
Human embryonic kidney (HEK293) cells expressing the human Cav1.2 channel in addition to the auxiliary subunits β-2a and α2δ-1, are grown in culture medium (DMEM containing 10% heat-inactivated fetal calf serum (FCS), 100 U/ml penicillin, 100 μg/ml streptomycin, 100 μg/ml G418, 40 μg/ml zeocin and 100 μg/ml hygromycin). The cells are seeded at 20.000 cells/well into 384-well black clear bottom sterile plates (poly-L-lysine-coated, Becton Dickinson). The seeded plates are incubated overnight at 37° C. in 5% CO2. The KCl solution is prepared as 80 mM stock solution in assay buffer (HBSS containing 0.1% BSA, 20 mM HEPES, 0.375 g/l NaHCO3, adjusted to pH 7.4 with NaOH) for use in the assay at a final concentration of 20 mM. Antagonists are prepared as 10 mM stock solutions in DMSO, then diluted in 384 w plates first in DMSO, then in assay buffer to obtain 3× stocks. On the day of the assay, 25 μl of staining buffer (HBSS containing 20 mM HEPES, 0.375 g/l NaHCO3, and 3 μM of the fluorescent calcium indicator fluo-4 AM (1 mM stock solution in DMSO, containing 10% pluronic) is added to each well of the seeded plate. The 384-well cell-plates are incubated for 60 min at 37° C. in 5% CO2 followed by washing with 2×50 μl per well using assay buffer leaving 50 μl/well of this buffer for equilibration at room temperature (30-60 min). Within the Fluorescent Imaging Plate Reader (FLIPR, Molecular Devices), antagonists are added to the plate in a volume of 25 μl/well, incubated for 3 min and finally 25 μl/well of KCl solution is added for cellular depolarization. Fluorescence is measured for each well at 2 second intervals for 8 minutes, and the area under the curve of each fluorescence peak is compared to the area of the fluorescence peak induced by 20 mM KCl with vehicle in place of antagonist. […]

Series [1] is described as follows: Hygroscopicity by scanned gravimetric vapour sorption. Format: physicochemical. Particulars: upwards scan; for Hygroscopicity classification: European Pharmacopea Technical Guide (1999), 40% to 80% relative humidity; for Hygroscopicity mass change: between 40% and 80% relative humidity. The source says:
The mass change between 40% relative humidity and 80% relative humidity in the upwards scan was considered.

T1 sequence (Q13936 whole entry): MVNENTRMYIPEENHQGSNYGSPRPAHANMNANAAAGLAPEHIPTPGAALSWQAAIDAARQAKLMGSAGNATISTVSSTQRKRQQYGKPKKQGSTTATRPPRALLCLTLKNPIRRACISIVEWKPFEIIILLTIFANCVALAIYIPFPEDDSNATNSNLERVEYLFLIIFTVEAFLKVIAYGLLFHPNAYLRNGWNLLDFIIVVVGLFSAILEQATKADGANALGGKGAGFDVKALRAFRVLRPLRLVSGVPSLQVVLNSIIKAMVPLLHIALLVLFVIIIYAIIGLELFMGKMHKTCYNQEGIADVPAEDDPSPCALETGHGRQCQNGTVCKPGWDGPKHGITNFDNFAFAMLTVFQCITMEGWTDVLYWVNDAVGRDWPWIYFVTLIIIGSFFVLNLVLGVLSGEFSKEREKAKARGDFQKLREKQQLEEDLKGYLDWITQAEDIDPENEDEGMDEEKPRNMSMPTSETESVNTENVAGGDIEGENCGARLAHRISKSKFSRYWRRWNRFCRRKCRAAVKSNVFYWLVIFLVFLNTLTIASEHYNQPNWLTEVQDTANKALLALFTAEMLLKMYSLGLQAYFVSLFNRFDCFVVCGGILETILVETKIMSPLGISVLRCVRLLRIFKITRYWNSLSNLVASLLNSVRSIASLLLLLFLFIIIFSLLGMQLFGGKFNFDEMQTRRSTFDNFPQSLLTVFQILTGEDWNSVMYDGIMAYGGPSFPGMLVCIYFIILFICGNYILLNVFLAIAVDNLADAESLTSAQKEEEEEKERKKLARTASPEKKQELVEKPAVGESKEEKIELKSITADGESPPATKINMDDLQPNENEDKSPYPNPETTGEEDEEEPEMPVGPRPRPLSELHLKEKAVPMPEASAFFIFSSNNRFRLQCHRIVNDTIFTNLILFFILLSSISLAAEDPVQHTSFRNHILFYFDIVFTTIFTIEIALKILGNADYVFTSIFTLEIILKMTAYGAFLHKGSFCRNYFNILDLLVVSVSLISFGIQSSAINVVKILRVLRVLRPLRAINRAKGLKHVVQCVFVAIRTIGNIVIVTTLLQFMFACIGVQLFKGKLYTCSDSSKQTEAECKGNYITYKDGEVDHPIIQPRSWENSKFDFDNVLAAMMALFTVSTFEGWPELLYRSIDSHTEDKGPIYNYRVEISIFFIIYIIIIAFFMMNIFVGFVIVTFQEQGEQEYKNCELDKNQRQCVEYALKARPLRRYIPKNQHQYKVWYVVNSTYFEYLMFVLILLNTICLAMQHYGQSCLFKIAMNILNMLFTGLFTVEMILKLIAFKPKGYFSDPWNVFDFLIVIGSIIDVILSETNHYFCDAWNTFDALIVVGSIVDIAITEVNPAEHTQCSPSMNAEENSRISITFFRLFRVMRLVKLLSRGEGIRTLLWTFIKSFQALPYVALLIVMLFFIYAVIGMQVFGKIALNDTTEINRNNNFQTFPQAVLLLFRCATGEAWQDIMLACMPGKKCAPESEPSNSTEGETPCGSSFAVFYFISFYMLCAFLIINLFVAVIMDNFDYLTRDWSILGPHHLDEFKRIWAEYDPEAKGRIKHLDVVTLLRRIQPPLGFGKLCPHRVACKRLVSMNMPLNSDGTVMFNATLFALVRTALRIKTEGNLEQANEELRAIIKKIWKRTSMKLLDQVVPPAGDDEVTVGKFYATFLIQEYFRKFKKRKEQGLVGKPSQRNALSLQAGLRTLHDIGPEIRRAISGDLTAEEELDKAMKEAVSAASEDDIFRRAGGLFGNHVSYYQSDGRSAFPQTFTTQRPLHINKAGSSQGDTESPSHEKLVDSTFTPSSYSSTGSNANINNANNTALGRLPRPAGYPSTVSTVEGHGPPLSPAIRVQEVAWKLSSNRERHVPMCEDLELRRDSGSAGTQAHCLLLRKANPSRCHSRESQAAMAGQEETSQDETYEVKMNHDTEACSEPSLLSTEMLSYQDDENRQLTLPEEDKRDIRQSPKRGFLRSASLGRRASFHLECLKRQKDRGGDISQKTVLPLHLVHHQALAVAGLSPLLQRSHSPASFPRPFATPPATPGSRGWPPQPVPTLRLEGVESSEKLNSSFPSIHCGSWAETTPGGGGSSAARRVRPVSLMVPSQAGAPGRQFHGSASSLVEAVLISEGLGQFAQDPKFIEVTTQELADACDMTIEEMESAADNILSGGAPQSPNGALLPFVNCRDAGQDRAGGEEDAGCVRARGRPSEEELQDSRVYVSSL
T1 sequence (Q08289 whole entry partner): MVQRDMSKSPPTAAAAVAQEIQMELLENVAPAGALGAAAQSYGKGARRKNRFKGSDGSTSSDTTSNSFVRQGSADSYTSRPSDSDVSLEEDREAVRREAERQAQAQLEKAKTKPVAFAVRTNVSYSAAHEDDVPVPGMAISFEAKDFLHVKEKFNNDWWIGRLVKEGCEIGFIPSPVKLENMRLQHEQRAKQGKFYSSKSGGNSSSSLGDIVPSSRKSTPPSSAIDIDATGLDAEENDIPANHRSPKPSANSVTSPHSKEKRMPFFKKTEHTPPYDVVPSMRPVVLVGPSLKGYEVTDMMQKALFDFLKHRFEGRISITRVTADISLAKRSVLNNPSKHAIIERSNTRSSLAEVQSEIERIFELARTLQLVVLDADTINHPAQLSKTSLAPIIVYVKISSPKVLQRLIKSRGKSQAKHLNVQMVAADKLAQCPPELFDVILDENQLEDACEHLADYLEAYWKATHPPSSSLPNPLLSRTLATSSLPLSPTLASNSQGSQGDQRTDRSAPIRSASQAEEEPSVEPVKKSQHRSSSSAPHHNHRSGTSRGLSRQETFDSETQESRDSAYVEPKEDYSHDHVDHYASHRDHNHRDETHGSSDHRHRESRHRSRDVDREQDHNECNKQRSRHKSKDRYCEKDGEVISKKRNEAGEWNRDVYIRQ
T1 sequence (P54289 25-946 partner limits assumed): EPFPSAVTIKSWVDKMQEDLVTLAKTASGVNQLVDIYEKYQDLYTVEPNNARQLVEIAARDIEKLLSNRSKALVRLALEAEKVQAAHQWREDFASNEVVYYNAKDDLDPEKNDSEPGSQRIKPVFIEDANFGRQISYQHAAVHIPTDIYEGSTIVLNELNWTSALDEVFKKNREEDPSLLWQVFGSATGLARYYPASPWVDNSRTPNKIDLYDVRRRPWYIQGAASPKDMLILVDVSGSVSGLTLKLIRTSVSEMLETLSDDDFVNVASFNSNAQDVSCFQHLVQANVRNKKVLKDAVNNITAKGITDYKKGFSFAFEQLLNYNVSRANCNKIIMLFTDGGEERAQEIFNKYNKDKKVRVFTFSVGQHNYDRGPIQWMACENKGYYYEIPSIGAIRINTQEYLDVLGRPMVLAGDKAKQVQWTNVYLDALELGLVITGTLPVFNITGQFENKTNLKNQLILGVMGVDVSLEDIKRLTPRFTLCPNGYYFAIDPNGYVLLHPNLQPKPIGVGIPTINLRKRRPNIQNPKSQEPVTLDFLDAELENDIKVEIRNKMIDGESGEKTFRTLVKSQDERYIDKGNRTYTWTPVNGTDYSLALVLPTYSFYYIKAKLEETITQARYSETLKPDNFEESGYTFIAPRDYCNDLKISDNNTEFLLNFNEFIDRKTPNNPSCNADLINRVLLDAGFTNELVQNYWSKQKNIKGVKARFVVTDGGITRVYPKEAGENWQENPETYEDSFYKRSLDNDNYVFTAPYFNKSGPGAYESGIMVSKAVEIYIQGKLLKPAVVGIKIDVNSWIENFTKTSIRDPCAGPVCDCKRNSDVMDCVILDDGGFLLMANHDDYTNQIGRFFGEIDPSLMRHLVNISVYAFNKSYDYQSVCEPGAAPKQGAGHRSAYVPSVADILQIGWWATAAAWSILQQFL
T1 sequence (P54289 947-1103 partner limits assumed): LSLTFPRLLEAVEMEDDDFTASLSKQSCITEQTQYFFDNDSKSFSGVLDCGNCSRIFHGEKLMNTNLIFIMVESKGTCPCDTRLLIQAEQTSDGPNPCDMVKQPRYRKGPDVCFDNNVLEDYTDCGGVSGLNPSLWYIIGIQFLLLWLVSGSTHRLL

Take `COc1ccc(OC)c2[nH]c(CCCN(C)CC[C@]3(OC(=O)C(C)C)C[C@H]4CC[C@@H]3C=C4c3ccccc3)nc12` (racemic) [Reference Example 1A, rac-Isobutyric acid (1R*,2R*,4R*)-2-(2-{[3-(4,7-dimethoxy-1H-benzoimidazol-2-yl)-propyl]-methyl-amino}-ethyl)-5-phenyl-bicyclo[2.2.2]oct-5-en-2-yl ester]: the EC50 – broadly, the concentration giving half of the maximal effect – in the series on isolated mouse hearts is 5 nM. In addition, on human Cav1.2 channel, the IC50 (in general, the concentration needed to halve the response being measured) is 156 to 439 nM.
Regarding `COc1ccc(OC)c2[nH]c(CCCN(C)CCC3(OC(=O)C(C)C)CC4CCC3C=C4c3ccccc3)nc12.COc1ccc(OC)c2[nH]c(CCCN(C)CCC3(OC(=O)C(C)C)CC4CCC3C=C4c3ccccc3)nc12.O=C(O)/C=C/C(=O)O.O=C(O)/C=C/C(=O)O.O=C(O)/C=C/C(=O)O` (stereo not drawn) [sesqui-fumaric acid salt of COMPOUND], in series [1], the Hygroscopicity classification entry is given as “Non hygroscopic” and the Hygroscopicity mass change is on record as 0.1%.
For the molecule `COc1ccc(OC)c2[nH]c(CCCN(C)CC[C@]3(OC(=O)C(C)C)C[C@H]4CC[C@@H]3C=C4c3ccccc3)nc12` [Reference Example 3A, Isobutyric acid (1R,2R,4R)-2-(2-{[3-(4,7-dimethoxy-1H-benzoimidazol-2-yl)-propyl]-methyl-amino}-ethyl)-5-phenyl-bicyclo[2.2.2]oct-5-en-2-yl ester], the IC50 at human Cav1.2 channel was in the range of 156 to 439 nM.
With `COc1ccc(OC)c2[nH]c(CCCN(C)CCC3(OC(=O)C(C)C)CC4CCC3C=C4c3ccccc3)nc12.Cl.Cl` (stereo not drawn) [di-hydrochloric acid salt of COMPOUND], in series [1], the Hygroscopicity classification entry is listed as “Slightly hygroscopic (mass” and the Hygroscopicity mass change entry was “change 0.5%)”.
Regarding `Br.Br.COc1ccc(OC)c2[nH]c(CCCN(C)CCC3(OC(=O)C(C)C)CC4CCC3C=C4c3ccccc3)nc12` (stereo not drawn) [di-hydrobromic acid salt of COMPOUND], in series [1], the Hygroscopicity classification result was “Non hygroscopic” and the Hygroscopicity mass change is listed as 0.1%.
On to `COc1ccc(OC)c2[nH]c(CCCN(C)CC[C@@]3(OC(=O)C(C)C)C[C@@H]4CC[C@H]3C=C4c3ccccc3)nc12` [Reference Example 2A, Isobutyric acid (1S,2S,4S)-2-(2-{[3-(4,7-dimethoxy-1H-benzoimidazol-2-yl)-propyl]-methyl-amino}-ethyl)-5-phenyl-bicyclo[2.2.2]oct-5-en-2-yl ester], for which, on human Cav1.2 channel, the IC50 was 156 to 439 nM.
For `COc1ccc(OC)c2[nH]c(CCCN(C)CCC3(OC(=O)C(C)C)CC4CCC3C=C4c3ccccc3)nc12.O=C(O)/C=C\C(=O)O.O=C(O)/C=C\C(=O)O` (stereo not drawn) [di-maleic acid salt of COMPOUND], in series [1], the Hygroscopicity classification entry was “Non hygroscopic” and the Hygroscopicity mass change is on record as 0.1%.
